In brackets after ≈: the same amount, converted by molar mass. Like-named read-outs stand apart in the source and are kept apart here. Numbered stars: 1 amine (or outer) side, 2 acyl side, 3 side chain; on linkers, the order of the positions; unused ones are H or OH. Bridge positions count the residues as written; N and C are the ends. Side chains are listed from the residue outwards. Peptide text beside a SMILES is read from it. * marks the point of attachment. C20 diacid = O=C(O)CCCCCCCCCCCCCCCCCCC(=O)*; γGlu = O=C(O)[C@H](CCC(=O)[*:2])N[*:1]
Legend:
hCTR = target: T1, hCTR (Homo sapiens, UniProt P30988); test: cAMP-responsive element luciferase reporter assay, human CTR; format: cell-based; settings: luciferase (human receptor assay)
T1 sequence (P30988 25-474): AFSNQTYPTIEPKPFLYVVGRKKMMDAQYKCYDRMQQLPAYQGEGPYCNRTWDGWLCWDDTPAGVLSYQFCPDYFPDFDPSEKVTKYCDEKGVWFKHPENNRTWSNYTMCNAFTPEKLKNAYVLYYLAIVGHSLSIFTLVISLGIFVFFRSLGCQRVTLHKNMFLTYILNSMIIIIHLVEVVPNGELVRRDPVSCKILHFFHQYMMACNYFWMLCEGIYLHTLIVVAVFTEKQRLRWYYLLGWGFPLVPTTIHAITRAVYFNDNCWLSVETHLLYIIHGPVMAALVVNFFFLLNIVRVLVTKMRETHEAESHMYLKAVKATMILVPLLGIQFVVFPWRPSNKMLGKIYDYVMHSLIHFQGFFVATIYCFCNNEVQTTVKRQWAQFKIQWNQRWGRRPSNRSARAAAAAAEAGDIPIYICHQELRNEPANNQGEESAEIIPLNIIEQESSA

[1] = ThT assay: fibril formation propensity and peptide recovery; format: physicochemical; settings: for ThT, pH 7.5 lag-time: 250 μM peptide, 10 mM HEPES pH 7.5, 1 μM ThT, 37 °C, 960 rpm, 45 h, lowest of four replicas, average of experiments; for recovery: pH 7.5, residual dissolved peptide after 45 h of shaking, centrifugation and 0.22 μm filtration, HPLC, relative to amount before stress
Description: The stability properties of the individual amylin analogs were assessed with respect to their propensity toward fibril formation, expressed as the time until fibril formation (measured as Lag time) and loss of dissolved peptide (assessed as Peptide Recovery). […] Samples were prepared as described previously (using the same methodology and materials) for a novel amylin-based analog candidate compound.[7]
Briefly, each compound was dissolved in 10 mM of glycylglycine buffer (pH 4.0) or HEPES buffer (pH 7.5) to a concentration of 250 μM, followed by ThT stock solution to a final concentration of 1 μM. Each solution was aliquoted into a microtiter plate (200 μL/well) sealed with a transparent adhesive sheet. Mechanical stress was applied at 37 °C incubation (960 rpm, 1 mm amplitude) with 20 min fluorescence reading intervals for 45 h (filters: excitation 444 nm; emission 485 nm). Each peptide was tested in experiments consisting of four replicas (e.g., four wells on the same plate), and the lag time of each replica was determined by visual inspection of the fluorescence-versus-time plot. For wells where no fibril formation could be detected, the lag time was set longer than the test period (>45 h). The lag time of the peptide was set to the lowest lag time of the four replicates (conservative estimate). Some of the peptides were tested in more than one experiment, and the lag time results given in Tables 6 and 9 represent the average of these experiments. The ThT time course data given in Supporting Information represent the average and SEM of each experiment.[40] After analysis, wells representing individual replicas were pooled, and the residual soluble peptide was isolated using centrifugation (20,000 g/30 min at room temperature) followed by […] filtration. The amount of residual dissolved peptide was determined using an HPLC with a flow rate of 2 mL/min at 30 °C and 215/276 nm detection. A gradient combining eluent A (7.7% w/w acetonitrile, 200 mM Na2SO4, 20 mM NaH2PO4, 20 mM Na2HPO4, pH 7.2) and eluent B (65.5% w/w acetonitrile) was applied. The amount of residual dissolved peptide was reported on a relative scale (Peptide Recovery) to the amount of dissolved peptide prior to mechanical stress.

[2] = Solubility versus pH profile
hAMY3R = target: T2, hAMY3R (Homo sapiens, UniProt O60896+P30988); test: cAMP-responsive element luciferase reporter assay, human AMY3R; format: cell-based; design: expressed in transfected cells; settings: for EC50: luciferase (human receptor assay); for ratio hCTR/hAMY3R: ratio of luciferase EC50 values
T2 sequence (P30988 25-474): T1 sequence (P30988 25-474)
T2 sequence (O60896 24-148 partner): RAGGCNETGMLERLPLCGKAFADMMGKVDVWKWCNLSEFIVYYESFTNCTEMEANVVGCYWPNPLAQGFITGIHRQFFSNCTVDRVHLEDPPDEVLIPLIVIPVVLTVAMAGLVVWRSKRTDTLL

[3] = HMWP content by size-exclusion chromatography; format: physicochemical; settings: analogs 1–9 (pH 7.5 series); covalent dimers and polymers prior to fibril formation testing, SEC, % of total absorbance area at 215 nm
Description: The stability properties of the individual amylin analogs were assessed with respect to their propensity toward amyloid fibril formation. The relative amount of covalent dimers and polymers (HMWP) present prior to fibril formation testing was measured as a control for the potential inhibitory effect of HMWP on fibril formation propensity as reported elsewhere.[39]
Elution was performed under isocratic conditions with the following mobile phase prepared in Milli-Q water (Millipore A/S): 0.5 M NaCl, 10 mM sodium dihydrogen monohydrate, 5 mM ortho-phosphoric acid, 50% (v/v) 2-propanol. The amount of HMWP was determined as the absorbance area of the corresponding peaks given in percentage of the total absorbance area. The molar extinction coefficients of the molecules eluting in the HMWP fraction and the main peak was assumed to be equal.

[4] = Tables S12 and S14, read-out: hCTR pEC50 (converted)
[5] = BHK cells stably expressing hCTR and CRE-luciferase, 3 h, 37 °C, 10% FBS, read-out: hCTR EC50
[6] = Tables S12 and S14, read-out: hAMY3R pEC50 (converted)
[7] = BHK cells stably expressing hCTR+RAMP3 and CRE-luciferase, 3 h, 37 °C, 10% FBS, read-out: hAMY3R EC50

SMILES	EC50 (hCTR; [4]) [nM]	EC50 (hCTR; [5]) [nM]	ThT, pH 7.5 lag-time [1] [h]	recovery [1] [%]	solubility kinetic ([2]; bis-tris-propane buffer, pH 6, aqueous buffer) [µM]	solubility kinetic ([2]; bis-tris-propane buffer, pH 6.5, aqueous buffer) [µM]	solubility kinetic ([2]; bis-tris-propane buffer, pH 7, aqueous buffer) [µM]	solubility kinetic ([2]; bis-tris-propane buffer, pH 7.5, aqueous buffer) [µM]	solubility kinetic ([2]; bis-tris-propane buffer, pH 8, aqueous buffer) [µM]	solubility kinetic ([2]; lactate buffer, pH 4, aqueous buffer) [µM]	solubility kinetic ([2]; lactate buffer, pH 5, aqueous buffer) [µM]	EC50 (hAMY3R; [6]) [nM]	EC50 (hAMY3R; [7]) [nM]	ratio hCTR/hAMY3R (hAMY3R)	HMWP [3] [%]
CC(C)C[C@H](NC(=O)[C@H](CCCNC(=N)N)NC(=O)[C@H](CCC(N)=O)NC(=O)[C@@H](NC(=O)[C@H](C)NC(=O)[C@@H]1CSSC[C@H](NC(=O)[C@@H](N)CCCCNC(=O)CC[C@H](NC(=O)CCCCCCCCCCCCCCCCCCC(=O)O)C(=O)O)C(=O)N[C@@H](CC(N)=O)C(=O)N[C@@H]([C@@H](C)O)C(=O)N[C@@H](C)C(=O)N[C@@H]([C@@H](C)O)C(=O)N1)[C@@H](C)O)C(=O)N[C@@H](C)C(=O)N[C@@H](CC(=O)O)C(=O)N[C@@H](Cc1ccccc1)C(=O)N[C@@H](CC(C)C)C(=O)N[C@@H](CCCNC(=N)N)C(=O)N[C@@H](Cc1c[nH]cn1)C(=O)N[C@@H](CO)C(=O)N[C@@H](CO)C(=O)N[C@@H](CCC(N)=O)C(=O)N[C@@H](CC(N)=O)C(=O)N[C@@H](Cc1ccccc1)C(=O)NCC(=O)N[C@@H](C)C(=O)N1CCC[C@H]1C(=O)N[C@@H](CC(C)C)C(=O)N[C@@H](CO)C(=O)N[C@@H](CO)C(=O)N[C@H](C(=O)N[C@@H](CC(N)=O)C(=O)N[C@H](C(=O)NCC(=O)N[C@@H](CO)C(=O)N1CCC[C@H]1C(=O)N[C@H](C(=O)N[C@@H](Cc1ccc(O)cc1)C(N)=O)[C@@H](C)O)C(C)C)[C@@H](C)O [Peptide 2] (H-K([γGlu-C20 diacid])CNTATCATQRLADFLRHSSQNFGAPLSSTNVGSPTY-NH2; disulfide 2-7)	1.38	1.37	0	0	≥ 200	75 (≈ 330 µg/mL)	7 (≈ 30.8 µg/mL)	7 (≈ 30.8 µg/mL)	15 (≈ 65.9 µg/mL)	≥ 200	≥ 200	1.55	1.54	0.9	–
CC[C@H](C)[C@H](NC(=O)[C@H](C)NC(=O)CNC(=O)[C@H](Cc1ccccc1)NC(=O)[C@@H]1CCCN1C(=O)[C@H](CC(N)=O)NC(=O)[C@H](CO)NC(=O)[C@H](CO)NC(=O)[C@H](Cc1c[nH]cn1)NC(=O)[C@H](CCCNC(=N)N)NC(=O)[C@H](CC(C)C)NC(=O)[C@H](Cc1ccccc1)NC(=O)[C@H](CC(=O)O)NC(=O)[C@H](C)NC(=O)[C@H](CC(C)C)NC(=O)[C@H](CCCNC(=N)N)NC(=O)[C@H](CCC(N)=O)NC(=O)[C@@H](NC(=O)[C@H](C)NC(=O)[C@@H]1CSSC[C@H](NC(=O)[C@@H](N)CCCCNC(=O)CC[C@H](NC(=O)CC[C@H](NC(=O)CCCCCCCCCCCCCCCCCCC(=O)O)C(=O)O)C(=O)O)C(=O)N[C@@H](CC(N)=O)C(=O)N[C@@H]([C@@H](C)O)C(=O)N[C@@H](C)C(=O)N[C@@H]([C@@H](C)O)C(=O)N1)[C@@H](C)O)C(=O)N1CCC[C@H]1C(=O)N[C@@H](CO)C(=O)N[C@@H](CO)C(=O)N[C@H](C(=O)N[C@@H](CC(N)=O)C(=O)N[C@H](C(=O)NCC(=O)N[C@@H](CO)C(=O)N[C@@H](CC(=O)O)C(=O)N[C@H](C(=O)N[C@@H](Cc1ccc(O)cc1)C(N)=O)[C@@H](C)O)C(C)C)[C@@H](C)O [Peptide 8] (H-K([γGlu-γGlu-C20 diacid])CNTATCATQRLADFLRHSSNPFGAIPSSTNVGSDTY-NH2; disulfide 2-7)	2.19	2.19	>45	100	–	–	–	–	–	–	–	0.389	0.39	5.6	2.5
CC[C@H](C)[C@H](NC(=O)[C@@H]1CCCN1C(=O)CNC(=O)[C@H](Cc1ccccc1)NC(=O)[C@H](CC(N)=O)NC(=O)[C@H](CCC(=O)O)NC(=O)[C@H](CO)NC(=O)[C@H](CO)NC(=O)[C@H](Cc1c[nH]cn1)NC(=O)[C@H](CCCNC(=N)N)NC(=O)[C@H](CC(C)C)NC(=O)[C@H](Cc1ccccc1)NC(=O)[C@H](CC(=O)O)NC(=O)[C@H](C)NC(=O)[C@H](CC(C)C)NC(=O)[C@H](CCCNC(=N)N)NC(=O)[C@H](CCC(N)=O)NC(=O)[C@@H](NC(=O)[C@H](C)NC(=O)[C@@H]1CSSC[C@H](NC(=O)[C@@H](N)CCCCNC(=O)CC[C@H](NC(=O)CC[C@H](NC(=O)CCCCCCCCCCCCCCCCCCC(=O)O)C(=O)O)C(=O)O)C(=O)N[C@@H](CC(N)=O)C(=O)N[C@@H]([C@@H](C)O)C(=O)N[C@@H](C)C(=O)N[C@@H]([C@@H](C)O)C(=O)N1)[C@@H](C)O)C(=O)N[C@@H](CC(C)C)C(=O)N[C@@H](CO)C(=O)N[C@@H](CO)C(=O)N[C@H](C(=O)N1CCC[C@H]1C(=O)N[C@H](C(=O)NCC(=O)N[C@@H](CO)C(=O)N[C@@H](CC(=O)O)C(=O)N[C@H](C(=O)N[C@@H](Cc1ccc(O)cc1)C(N)=O)[C@@H](C)O)C(C)C)[C@@H](C)O [Peptide 9] (H-K([γGlu-γGlu-C20 diacid])CNTATCATQRLADFLRHSSENFGPILSSTPVGSDTY-NH2; disulfide 2-7)	8.32	8.31	>45	100	–	–	–	–	–	–	–	1.07	1.06	7.8	6

— PMC11284788, “NN1213 – A Potent, Long-Acting, and Selective Analog of Human Amylin” (Journal of Medicinal Chemistry, 2024)
